Test results taken from article PMC7177633, “Effective Cellular Transport of Ortho-Halogenated Sulfonamide Derivatives of Metformin Is Related to Improved Antiproliferative Activity and Apoptosis Induction in MCF-7 Cells” (International Journal of Molecular Sciences, 2020).
Several values for one entry are separate records, joined by “and”; a condition that tells them apart may be missing. Equal values may be shown once. Read-outs that look alike come from different tables or passages of the source.

Key:
HUVECs = test system: HUVECs; design: method as in PMID 31776031; conditions: concentration range 10–3000 µmol/L; read-out: IC50 viability of HUVECs; cited from earlier work
MDA-MB-231 cells [1] = assay: Uptake in the presence of OCT and MATE inhibitors, MDA-MB-231 cells; format: in vitro ADME, human
Procedure: (§1) The uptake of sulfonamide derivatives of metformin (1–9) in MCF-7 and MDA-MB-231 cells was studied also in the presence of disopyramide, cimetidine (OCT1 and 3 inhibitors), lopinavir (OCT and PMAT inhibitor) and methenamine (MATE and OCT2 inhibitors). The cells were incubated (37 °C, 10 min) with compounds 1–9 at concentrations of 400 and 800 μmol/L and inhibitors (disopyramide, cimetidine, lopinavir or methenamine) in 250 μL of prewarmed HBSS buffer. The protocol of determination of the compound concentration was as described above.

MCF-7 cells [2] = assay: Cell viability WST-1 assay, MCF-7; format: cell-based; conditions: Homo sapiens, MCF7; WST-1, 24 h, mean ± SD (n = 6–8); read-out: IC50 inhibition of MCF-7 cells' viability
Procedure: (§2) The viability of MCF-7 and MDA-MB-231 cells was determined using a colorimetric WST-1 assay (Takara, Takara Bio Europe, Saint-Germain-en-Laye, France). Both cell lines were seeded at a density of 1 × 10^4 per well on 96-well plates and were cultured for 24 h to obtain 70% confluence. The following day, the cells were treated with various concentrations of compounds 1–9 diluted in the cell culture medium ([…]). The cells were incubated with tested compounds or pure medium (control) for 24 h (37 °C, 5% CO2). Afterwards, the cells were washed with 100 μL of culture medium, and then, the reagent dissolved in the medium was added (100 μL). The plates were incubated at the standard condition for 1.5 h, and the absorbance was read at 450 nm using a microplate reader (iMARK, Bio-Rad, Bio-Rad Laboratories Inc., Hercules, CA, USA). […] The results of samples treated with the test compounds were expressed as a percentage of the control samples. The data were presented as mean ± standard deviation (SD), n = 8. IC50 values (the concentration of the tested compound that inhibited cell growth by 50%) were calculated using a concentration-response curve (GraphPad Prism, Software, San Diego, CA, USA).
(§3) The concentrations contributing to the 50% of cell growth inhibition (IC50) were calculated using nonlinear regression analysis (fitting the curve to log (concentration) vs. cellular response).

MCF-7 cells [3] = assay: Cellular uptake of metformin sulfonamides in MCF-7 cells (HPLC); format: in vitro ADME, human
Procedure: (§4) The uptake of metformin sulfonamides (1–9) in MCF-7 and MDA-MB-231 cells was studied by incubation of the cells with 10−3000 μmol/L of compounds in 250 μL of prewarmed HBSS buffer at 37 °C for 10 min. Subsequently, the cells were then washed three times with 500 μL of ice-cold HBSS and lysed with 250 μL of 0.1-M NaOH. The samples were collected, centrifuged (5 min, 1400 rpm) and the supernatants were analyzed by the HPLC method. The concentration of each compound in the cells was calculated on the basis of the standard curve prepared by spiking known amounts of every compound on the cell layers in 250 μL of 0.1-M NaOH.
(§5) The concentration of the studied sulfonamides (1–9) was assessed using the HPLC system, consisting of an Agilent 1100 binary pump (Agilent Technologies Inc., Wilmington, DE, USA), an 1100 micro-vacuum degasser, an HP 1050 autosampler and an HP 1050 variable wavelength detector (operated at 235 nm). The chromatographic separations of compounds 1–9 were conducted on an Agilent Zorbax SB-C18 analytical column (4.6 mm × 150 mm, 5 μm) using an isocratic elution of water containing 0.1% formic acid (pH ca. 3.0) and acetonitrile containing 0.1% formic acid with a changing ratio, depending on the compound. The analyses were conducted at room temperature (RT). The detailed procedure of chromatographic analysis was described in our previous paper. The studies were conducted in quadruplicates.
(§6) The protein concentrations in representative wells of each plate were assessed using a Bio-Rad protein assay according to the Bradford method (EnVision, PerkinElmer, Inc., Waltham, MA, USA).

OCTs = assay: Inhibition of [14C]choline uptake in MDA-MB-231 cells (competitive inhibition assay); format: cell-based, human; conditions: mean ± SD (n = 3)
Procedure: The following day, after removal of the culture medium, the cells were carefully washed with prewarmed HBSS (Hanks’ balanced salt solution) containing 125 mM NaCl, 4.8 mM KCl, 1.2 mM MgSO4, 1.2 mM KH2PO4, 1.3 mM CaCl2, 5.6 mM glucose and 25 mM HEPES (pH 7.4). […] Then, the cells were washed three times with ice-cold HBSS (500 μL) and were lysed with 250 μL of 0.1-M NaOH in the ice bath, and the lysate was mixed with 1.0 mL of an emulsifier safe cocktail (PerkinElmer, Waltham, MA, USA). The radioactivity was measured by liquid scintillation counting (MicroBeta^2 counter, PerkinElmer, Waltham, MA, USA). The studies were carried out with the use of at least three replicates from the same cell passage.

MDA-MB-231 cells [4] = assay: Cell viability WST-1 assay, MDA-MB-231; format: cell-based; conditions: Homo sapiens, MDA-MB-231; WST-1, 24 h, mean ± SD (n = 6–8); read-out: IC50 inhibition of MDA-MB-231 cells' viability
Procedure: as §2, §3

MDA-MB-231 cells [5] = assay: Cellular uptake of metformin sulfonamides in MDA-MB-231 cells (HPLC); format: in vitro ADME, human
Procedure: as §4, §5, §6

AoSMC = test system: AoSMC; design: method as in PMID 31776031; conditions: concentration range 10–3000 µmol/L; read-out: IC50 viability of AoSMCs; cited from earlier work
MCF-7 cells [6] = assay: Uptake in the presence of OCT and MATE inhibitors, MCF-7 cells; format: in vitro ADME, human
Procedure: as §1

[7] = compound and inhibitor 400 and 800 µmol/L, 10 min, 37 °C
[8] = summary from uptake with inhibitors
[9] = 800 μmol/L, 10 min incubation, 37 °C
[10] = Eadie-Hofstee analysis, transporter I
[11] = Eadie-Hofstee analysis, transporter II

CN(C)C(=N)N=C(N)NS(=O)(=O)c1ccc(Cl)cc1 [Compound 3]
IC50 (HUVECs): 1770 ± 120 µM
uptake in the presence of disopyramide, MDA-MB-231 (MDA-MB-231 cells [1]; [7]): significantly lower uptake
uptake in the presence of lopinavir, MDA-MB-231 (MDA-MB-231 cells [1]; [7]): increased uptake
uptake in the presence of methenamine, MDA-MB-231 (MDA-MB-231 cells [1]; [7]): increased uptake
interactions with OCT, PMAT and MATE1 transporters, MDA-MB-231 (MDA-MB-231 cells [1]; [8]): OCT1, PMAT, MATE1
IC50 (MCF-7 cells [2]): 1430 ± 135 µM
uptake into MCF-7 cells (MCF-7 cells [3]; [9]): 0.84 ± 0.06 nmol/min/mg protein
Vmax, transporter I, MCF-7 (MCF-7 cells [3]; [10]): 1.61 nmol/min/mg and 1.614 ± 0.11 nmol/min/mg
Km (MCF-7 cells [3]; Eadie-Hofstee analysis, transporter I, read-out: Km, transporter I, MCF-7): 0.813 ± 0.0865 mM
Vmax, transporter II, MCF-7 (MCF-7 cells [3]; [11]): 10.76 ± 0.88 nmol/min/mg
Km (MCF-7 cells [3]; Eadie-Hofstee analysis, transporter II, read-out: Km, transporter II, MCF-7): 8.81 ± 0.791 mM
Vmax MCF-7 (Michaelis Menten curves) (MCF-7 cells [3]; Michaelis-Menten curve): 5.073 ± 1.96 nmol/min/mg
Km (MCF-7 cells [3]; Michaelis-Menten curve, read-out: Km MCF-7 (Michaelis Menten curves)): 3.58 ± 1.71 mM
IC50 (OCTs): 3760 ± 124 µM
IC50 (MDA-MB-231 cells [4]): 1040 ± 134 µM
uptake into MDA-MB-231 cells (MDA-MB-231 cells [5]; [9]): 0.42 ± 0.15 nmol/min/mg protein
Vmax, transporter I, MDA-MB-231 (MDA-MB-231 cells [5]; [10]): 1.390 ± 0.23 nmol/min/mg
Km (MDA-MB-231 cells [5]; Eadie-Hofstee analysis, transporter I, read-out: Km, transporter I, MDA-MB-231): 2.37 ± 0.48 mM
Vmax, transporter II, MDA-MB-231 (MDA-MB-231 cells [5]; [11]): 2.20 ± 0.41 nmol/min/mg
Km (MDA-MB-231 cells [5]; Eadie-Hofstee analysis, transporter II, read-out: Km, transporter II, MDA-MB-231): 4.67 ± 0.932 mM
transport efficacy (Vmax/Km) in MCF-7 relative to MDA-MB-231 (MDA-MB-231 cells [5]; fold lower in MDA-MB-231 than in MCF-7): 2.4–3.2 fold
IC50 (AoSMC): 1890 ± 110 µM
uptake in the presence of cimetidine, MCF-7 (MCF-7 cells [6]; [7]): did not change
uptake in the presence of disopyramide, MCF-7 (MCF-7 cells [6]; [7]): did not change
uptake in the presence of lopinavir, MCF-7 (MCF-7 cells [6]; [7]): did not change
uptake in the presence of methenamine, MCF-7 (MCF-7 cells [6]; [7]): significant decrease
interactions with OCT, PMAT and MATE1 transporters, MCF-7 (MCF-7 cells [6]; [8]): OCT1,MATE1
